Source: BindingDB's records for patent US20250313563 (The Broad Institute, 2025)
Where “and” joins values, the source holds several entries; their conditions need not be identical. Identical values can stand only once.

Experiments:
[1] = target: Glycogen synthase kinase-3 beta (Homo sapiens, UniProt P49841); test: TR-FRET Assay
How it was run: (§1)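 Signal is measured as TR-FRET between a terbium anti-phospho-Ser641 antibody and streptavidin-d2, added after an EDTA quench. Compounds are preincubated 30 min in assay buffer.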

[2] = target: Glycogen synthase kinase-3 alpha (Homo sapiens, UniProt P49840); test: TR-FRET Assay
How it was run: as §1

Chain of Glycogen synthase kinase-3 alpha (P49840 whole entry): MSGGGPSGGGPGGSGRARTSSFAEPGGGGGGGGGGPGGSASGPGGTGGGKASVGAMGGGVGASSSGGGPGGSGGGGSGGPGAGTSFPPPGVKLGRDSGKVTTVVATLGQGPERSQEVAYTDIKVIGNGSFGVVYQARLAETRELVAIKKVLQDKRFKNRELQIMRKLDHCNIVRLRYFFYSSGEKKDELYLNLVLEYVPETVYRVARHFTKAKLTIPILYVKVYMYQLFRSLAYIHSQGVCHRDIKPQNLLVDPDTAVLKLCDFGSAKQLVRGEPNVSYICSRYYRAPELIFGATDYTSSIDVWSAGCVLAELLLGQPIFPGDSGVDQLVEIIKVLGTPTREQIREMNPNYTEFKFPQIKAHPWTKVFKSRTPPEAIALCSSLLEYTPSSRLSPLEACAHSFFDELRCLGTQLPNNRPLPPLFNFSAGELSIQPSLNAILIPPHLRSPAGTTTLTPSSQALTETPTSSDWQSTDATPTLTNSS
Chain of Glycogen synthase kinase-3 beta (P49841 whole entry): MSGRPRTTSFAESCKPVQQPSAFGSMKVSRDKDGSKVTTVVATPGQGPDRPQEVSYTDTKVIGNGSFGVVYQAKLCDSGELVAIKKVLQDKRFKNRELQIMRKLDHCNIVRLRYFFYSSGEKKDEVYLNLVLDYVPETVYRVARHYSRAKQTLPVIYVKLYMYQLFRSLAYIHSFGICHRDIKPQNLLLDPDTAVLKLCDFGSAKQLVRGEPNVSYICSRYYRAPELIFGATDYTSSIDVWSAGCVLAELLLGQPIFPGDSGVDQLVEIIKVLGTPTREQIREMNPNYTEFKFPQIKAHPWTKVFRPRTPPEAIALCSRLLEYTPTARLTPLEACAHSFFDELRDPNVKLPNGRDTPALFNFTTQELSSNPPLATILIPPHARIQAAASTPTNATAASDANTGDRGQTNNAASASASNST

Row | SMILES | IC50 [1] | IC50 [2]
1 | CC[C@@]1(c2cccc(C(F)(F)F)c2)C2=CN=NC2NC2=C1C(=O)N(Cc1ccccc1)CC2 (stereo partly specified) [US20250313563, Compound 912006] | > 5000 nM | > 5000 nM
2 | CC[C@@]1(c2cccc(C(F)(F)F)c2)C2=CN=NC2NC2=C1C(=O)NCC2 (stereo partly specified) [US20250313563, Compound 912668] | > 5000 nM | > 5000 nM
3 | CC[C@@]1(c2cccc(-c3cnnc(C)c3)c2)C2=CN=NC2NC2=C1C(=O)CC(C)(C)C2 (stereo partly specified) [US20250313563, Compound 943995] | > 5000 nM | 100 to 1000 nM
4 | Cc1ccc(S(=O)(=O)N2CCC3(CC2)C2=C(N=NC2)NC2=C3C(=O)CC(C)(C)C2)s1 [US20250313563, Compound 945672] | < 100 nM and 100 to 1000 nM | < 100 nM and 100 to 1000 nM
5 | CC[C@@]1(c2cccc(-c3cnn(C)c3)c2)C2=CN=NC2NC2=C1C(=O)CC(C)(C)C2 (stereo partly specified) [US20250313563, Compound 819576] | 1000 to 5000 nM | 100 to 1000 nM
6 | CC(C)(C)CC1N=NC2=C1[C@](C)(c1cccc(S(=O)(=O)N3CCCC3)c1)C1=C(CC(C)(C)NC1=O)N2 (stereo partly specified) [US20250313563, Compound 108791] | 100 to 1000 nM | 1000 to 5000 nM
7 | CC[C@]1(c2ccccc2)C2=CN=NC2NC2=C1C(=O)[C@H](C)C[C@H]2C (stereo partly specified) [US20250313563, Compound 865199] | > 5000 nM | 1000 to 5000 nM
8 | CC[C@@]1(c2cccc(C(F)(F)F)c2)C2=CN=NC2NC2=C1C(=O)N(c1cnsc1)CC2 (stereo partly specified) [US20250313563, Compound 951742] | 1000 to 5000 nM | 100 to 1000 nM
9 | CC[C@]1(c2cccc(S(=O)(=O)C3CC3)c2)C2=CN=NC2NC2=C1C(=O)N(C)C(C)(C)C2 (stereo partly specified) [US20250313563, Compound 949184] | > 5000 nM | 1000 to 5000 nM
10 | CCC1(c2cccc(N(C)c3cccc(C(F)(F)F)n3)c2)C2=CN=NC2NC2=C1C(=O)CC(C)(C)C2 (stereo unspecified) [US20250313563, Compound 913122] | 100 to 1000 nM | 100 to 1000 nM
11 | CC(=O)N1CC[C@@]2(C1)C[C@@]1(CO2)C2=C(N=NC2)NC2=C1C(=O)CC(C)(C)C2 [US20250313563, Compound 948320] | 1000 to 5000 nM | 100 to 1000 nM
12 | CC[C@@]1(c2cccc(C(F)(F)F)c2)C2=CN=NC2NC2=C1C(=O)N(c1ccsc1)CC2 (stereo partly specified) [US20250313563, Compound 952636] | > 5000 nM | > 5000 nM
13 | CC[C@@]1(c2cccc(-c3cnn(C)c3C)c2)C2=C(CC(C)(C)CC2=O)NC2N=NC(C)=C21 (stereo partly specified) [US20250313563, Compound 913024] | 1000 to 5000 nM | 100 to 1000 nM
14 | CC[C@@]1(c2cccc(CN(C)c3ccc(F)nc3)c2)C2=CN=NC2NC2=C1C(=O)CC(C)(C)C2 (stereo partly specified) [US20250313563, Compound 932667] | > 5000 nM | > 5000 nM
15 | CC[C@@]1(c2ccccc2)C2=C(CC(C)(C)CC2=O)NC2N=NC(Br)=C21 (stereo partly specified) [US20250313563, Compound 792340] | < 100 nM and 100 to 1000 nM | < 100 nM and 100 to 1000 nM
16 | CC1(C)CC(=O)C2=C(C1)NC1N=NC(CCC(F)(F)F)=C1C21CCc2c(F)cccc21 (stereo unspecified) [US20250313563, Compound 841868] | 100 to 1000 nM | 100 to 1000 nM
17 | CC[C@@]1(c2cccc([C@@H]3CCOC(C)(C)C3)c2)C2=CN=NC2NC2=C1C(=O)CC(C)(C)C2 (stereo partly specified) [US20250313563, Compound 912091] | > 5000 nM | > 5000 nM
18 | CC[C@@]1(c2cccc(-c3ccncc3)c2)C2=C(CC(C)(C)CC2=O)NC2N=NC(C(F)(F)F)=C21 (stereo partly specified) [US20250313563, Compound 917292] | 100 to 1000 nM | 100 to 1000 nM

Continued, values first:

Row | IC50 [1] | IC50 [2] | SMILES
19 | 100 to 1000 nM | < 100 nM | CC[C@]1(c2cccc(-c3cnn(C)c3)c2)C2=C(CC(C)(C)NC2=O)NC2N=NC(C(F)(F)F)=C21 (stereo partly specified) [US20250313563, Compound 947871]
20 | 100 to 1000 nM | 100 to 1000 nM | CC[C@]1(c2cccc(-c3cc(C)nn3-c3ccccc3)c2)C2=CN=NC2NC2=C1C(=O)NC(C)(C)C2 (stereo partly specified) [US20250313563, Compound 951845]
21 | < 100 nM | < 100 nM | COc1ccc(S(=O)(=O)N2CCC3(CC2)C2=C(N=NC2)NC2=C3C(=O)CC(C)(C)C2)cn1 [US20250313563, Compound 945666]
22 | < 100 nM | < 100 nM | CCC1(c2cccc(C(F)(F)F)c2)C2=CN=NC2NC2=C1C(=O)CC1(CCCC1)C2 (stereo unspecified) [US20250313563, Compound 790617]
23 | > 5000 nM | 100 to 1000 nM | CC[C@@]1(c2ccccc2)C2=CN=NC2NC2=C1C(=O)C[C@H](c1ccccc1)C2 (stereo partly specified) [US20250313563, Compound 791264]
24 | < 100 nM | 100 to 1000 nM | CC(C)(C)CC1=C2C(N=N1)NC1=C(C(=O)CC(C)(C)C1)C21CCc2c(F)cccc21 (stereo unspecified) [US20250313563, Compound 789524]
25 | < 100 nM and 100 to 1000 nM | < 100 nM | CCC1(c2cccc(-c3c(F)cncc3OC)c2)C2=CN=NC2NC2=C1C(=O)CC(C)(C)C2 (stereo unspecified) [US20250313563, Compound 945704]
26 | 100 to 1000 nM | < 100 nM | CC[C@]1(c2cccc(Cc3ncccc3C(F)(F)F)c2)C2=CN=NC2NC2=C1C(=O)CC(C)(C)C2 (stereo partly specified) [US20250313563, Compound 947664]
27 | 100 to 1000 nM | < 100 nM | CC[C@@]1(c2cccc(-c3ccnn3C)c2)C2=CN=NC2NC2=C1C(=O)CC(C)(C)C2 (stereo partly specified) [US20250313563, Compound 911993]
28 | 100 to 1000 nM | < 100 nM | CCc1cccc(N(C)c2cccc([C@]3(CC)C4=CN=NC4NC4=C3C(=O)CC(C)(C)C4)c2)n1 (stereo partly specified) [US20250313563, Compound 945730]
29 | < 100 nM | < 100 nM | CCn1nccc1-c1cccc(C2(CC)C3=CN=NC3NC3=C2C(=O)CC(C)(C)C3)c1 (stereo unspecified) [US20250313563, Compound 929398]
30 | < 100 nM | < 100 nM | CCC1(c2cccc(-c3cc(C)ncc3C)c2)C2=C(CC(C)(C)CC2=O)NC2N=NC(C)=C21 (stereo unspecified) [US20250313563, Compound 883988]
31 | 100 to 1000 nM | < 100 nM | CC1(C)CC(=O)C2=C(C1)NC1=C(CN=N1)C21CCC2(CC1)COC2 [US20250313563, Compound 883977]
32 | 100 to 1000 nM | < 100 nM | CC[C@@]1(c2cccc(-c3cc(OC)ncc3F)c2)C2=CN=NC2NC2=C1C(=O)NC(C)(C)C2 (stereo partly specified) [US20250313563, Compound 949109]
33 | 100 to 1000 nM | < 100 nM | CC[C@]1(c2cccc(-c3ccncn3)c2)C2=CN=NC2NC2=C1C(=O)CC(C)(C)C2 (stereo partly specified) [US20250313563, Compound 810488]
34 | < 100 nM | < 100 nM | CC1(C)CC(=O)C2=C(C1)NC1=C(CN=N1)C21CCN(S(=O)(=O)c2cnn3c2CCCC3)CC1 [US20250313563, Compound 947474]
35 | < 100 nM | < 100 nM | CCC1(c2cccc(C(C)C)c2)C2=C(CC(C)(C)NC2=O)NC2N=NC(C)=C21 (stereo unspecified) [US20250313563, Compound 949173]
36 | < 100 nM and 100 to 1000 nM | < 100 nM | CCC1(c2cccc(-c3cnn(C)c3)c2)C2=C(CC(C)(C)NC2=O)NC2N=NC(C(F)(F)F)=C21 (stereo unspecified) [US20250313563, Compound 947405]
37 | < 100 nM | < 100 nM | CC1(C)CC(=O)C2=C(C1)NC1=C(CN=N1)C21COC2(CN(C(=O)c3ccccc3F)C2)C1 (stereo unspecified) [US20250313563, Compound 947289]
38 | < 100 nM | < 100 nM | CCC1(c2cccc(Oc3ncccn3)c2)C2=C(CC(C)(C)NC2=O)NC2N=NC(Cl)=C21 (stereo unspecified) [US20250313563, Compound 950318]
